Experimental data: PubChem BioAssay AID1117344
Activity calls are given as the source filed them. No rule for the calls is given here.

These compounds were tested on NCI-H716 cells, GLP-1 secretion (assay: glucagon-like peptide 1 release potency, dose-response assay, half-maximal inhibitory concentration in NCI-H716 cell line (AID 1117344)).
`OCCN1CCN(CC/C=C2/c3ccccc3Sc3ccc(C(F)(F)F)cc32)CC1` was tested, and the IC50 was 32.2 µM (inactive).
`CC(=O)[O][Hg][c]1ccccc1` was tested, and the IC50 was 9.57 µM (inactive).
With `CCCCCCCCCCCC(=O)[O][Sn]([CH2]CCC)([CH2]CCC)[O]C(=O)CCCCCCCCCCC` the IC50 was > 40 µM (inactive).
`Cc1ccc([N+](=O)[O-])[c]2c1[O][Hg]2` was tested, and the IC50 was 9.87 µM (inactive).
With `CCCCCCCCCCCCCC[N+](C)(C)C` the IC50 was 18.6 µM (inactive).
